Results as given in patent US20100267561A1, “HERBICIDAL PYRIDAZINONE DERIVATIVES” (priority 2007, published 2010).
Read-outs that look alike come from different tables or passages of the source.

Experiments:
Assay type in all cases: in vivo
[1] = system: corn (Zea mays); test: Test A pre-/postemergence plant response; conditions: Zea mays, 240 h; for Corn plant response rating (crop injury, 0 = no effect, 100 = complete kill) at 125 g/ha: 125 g ai/ha; for Corn plant response rating (crop injury, 0 = no effect, 100 = complete kill) at 500 g/ha: 500 g ai/ha
In short: (§1)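 Soil: loam blended with sand. Formulation: non-phytotoxic solvent mixture plus surfactant, applied as preemergence directed soil spray and as postemergence spray. Scoring: visual, 0 no effect to 100 complete control, roughly 10 days post-treatment in greenhouse.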

[2] = system: barnyardgrass (Echinochloa crus-galli); test: Test A pre-/postemergence plant response; conditions: Echinochloa crus-galli, 240 h, read-out: Plant response rating, Barnyardgrass; for pest or weed control at 125 g/ha: 125 g ai/ha; for pest or weed control at 500 g/ha: 500 g ai/ha
In short: as §1

[3] = system: pigweed (Amaranthus retroflexus); test: Test A pre-/postemergence plant response; conditions: Amaranthus retroflexus, 240 h, read-out: Plant response rating, Pigweed; for pest or weed control at 125 g/ha: 125 g ai/ha; for pest or weed control at 500 g/ha: 500 g ai/ha
In short: as §1

[4] = system: velvetleaf (Abutilon theophrasti); test: Test A pre-/postemergence plant response
In short: as §1

[5] = system: wheat (Triticum aestivum); test: Test A pre-/postemergence plant response; conditions: Triticum aestivum, 240 h, read-out: Plant response rating, Wheat; for plant injury at 125 g/ha: 125 g ai/ha; for plant injury at 500 g/ha: 500 g ai/ha
In short: as §1

[6] = system: morningglory (Ipomoea coccinea); test: Test A pre-/postemergence plant response
In short: as §1

[7] = system: large crabgrass (Digitaria sanguinalis); test: Test A pre-/postemergence plant response; conditions: Digitaria sanguinalis, 240 h, read-out: Plant response rating, Crabgrass, Large; for pest or weed control at 125 g/ha: 125 g ai/ha; for pest or weed control at 500 g/ha: 500 g ai/ha
In short: as §1

[8] = system: umbrella sedge (Cyperus difformis); test: Test B flooded paddy test plant response; conditions: Cyperus difformis, read-out: Plant response rating, Sedge, Umbrella
In short: (§2)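 Compounds were added directly to paddy water over 2-leaf-stage plants in pots flooded 3 cm above soil, water depth maintained. Visual injury scored against controls after 13 to 15 days in greenhouse, 0 (none) to 100 (complete control); dash indicates no result.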

[9] = system: barnyardgrass (Echinochloa crus-galli); test: Test B flooded paddy test plant response; conditions: Echinochloa crus-galli, read-out: Plant response rating, Barnyardgrass
In short: as §2

[10] = system: rice (Oryza sativa); test: Test B flooded paddy test plant response; conditions: Oryza sativa, read-out: Plant response rating, Rice
In short: as §2

[11] = system: ducksalad (Heteranthera limosa); test: Test B flooded paddy test plant response; conditions: Heteranthera limosa, read-out: Plant response rating, Ducksalad
In short: as §2

[12] = system: chickweed (Stellaria media); test: Test B postemergence plant response; conditions: for Plant response rating, Chickweed: Postemergence
In short: (§3)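 Emerged plants, 1- to 4-leaf stage, treated; greenhouse 13–15 d; eye-scored vs untreated controls (0–100 scale).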

[13] = system: canarygrass (Phalaris minor); test: Test B postemergence plant response; conditions: for Plant response rating, Canarygrass: Postemergence
In short: as §3

[14] = system: windgrass (Apera spica-venti); test: Test B postemergence plant response; conditions: for Plant response rating, Windgrass: Postemergence
In short: as §3

[15] = system: winter barley (Hordeum vulgare); test: Test B postemergence plant response; conditions: for Plant response rating, Barley: Postemergence, scale 0 to 100, 0 no effect, 100 complete control
In short: as §3

[16] = post-emergence, Postemergence, 0 to 100 scale, 0 no effect, 100 complete control
[17] = pre-emergence, Preemergence, 0 to 100 scale (0 no effect, 100 complete control)
[18] = Postemergence, 125 g ai/ha, 0 to 100 scale, 0 no effect, 100 complete control
[19] = Postemergence, 500 g ai/ha, 0 to 100 scale, 0 no effect, 100 complete control
[20] = Preemergence, 125 g ai/ha, 0 to 100 scale (0 no effect, 100 complete control)
[21] = Preemergence, 500 g ai/ha, 0 to 100 scale (0 no effect, 100 complete control)
[22] = Flood (flooded paddy test), 62 g ai/ha, scale 0 to 100, 0 no effect, 100 complete control
[23] = Flood (flooded paddy test), 125 g ai/ha, scale 0 to 100, 0 no effect, 100 complete control
[24] = Flood (flooded paddy test), 250 g ai/ha, scale 0 to 100, 0 no effect, 100 complete control
[25] = Flood, 31 g ai/ha, scale 0 to 100
[26] = 8 g ai/ha, postemergence, 0-100 scale
[27] = 31 g ai/ha, scale 0 to 100, 0 no effect, 100 complete control
[28] = 62 g ai/ha, scale 0 to 100, 0 no effect, 100 complete control

In the case of `CCc1c(C)c(-c2ccc(Cl)cc2)nn1-c1c(O)cnn(C)c1=O` [Compound 26, 4-[3-(4-chlorophenyl)-5-ethyl-4-methyl-1H-pyrazol-1-yl]-5-hydroxy-2-methyl-3(2H)-pyridazinone], the Corn plant response rating (crop injury, 0 = no effect, 100 = complete kill) at 125 g/ha [1, 16] is reported as 60%, the Corn plant response rating (crop injury, 0 = no effect, 100 = complete kill) at 500 g/ha [1, 16] is reported as 100% and the Corn plant response rating (crop injury, 0 = no effect, 100 = complete kill) at 125 g/ha [1, 17] is reported as 50%. It also gave a Corn plant response rating (crop injury, 0 = no effect, 100 = complete kill) at 500 g/ha [1, 17] of 90%, a pest or weed control at 125 g/ha [2, 16] of 100% and a pest or weed control at 500 g/ha [2, 16] of 100%. The pest or weed control at 125 g/ha [2, 17] was 100%, the pest or weed control at 500 g/ha [2, 17] was 100% and the pest or weed control at 125 g/ha [3, 16] was 0%. The pest or weed control at 500 g/ha [3, 16] was 0%, the pest or weed control at 125 g/ha [3, 17] was 0% and the pest or weed control at 500 g/ha [3, 17] was 0%. The “Plant response rating, Velvetleaf” value [4, 18] was 0, the “Plant response rating, Velvetleaf” value [4, 19] was 20 and the “Plant response rating, Velvetleaf” value [4, 20] was 0. For the same compound, the “Plant response rating, Velvetleaf” value [4, 21] was 0, the plant injury at 125 g/ha [5, 16] was 0% and the plant injury at 500 g/ha [5, 16] was 60%. For the same compound, the plant injury at 125 g/ha [5, 17] was 20%, the plant injury at 500 g/ha [5, 17] was 70% and the “Plant response rating, Morningglory” value [6, 18] was 0. The “Plant response rating, Morningglory” value [6, 19] was 20, the “Plant response rating, Morningglory” value [6, 20] was 0 and the “Plant response rating, Morningglory” value [6, 21] was 0. For the same compound, the pest or weed control at 125 g/ha [7, 16] was 80%, the pest or weed control at 500 g/ha [7, 16] was 100% and the pest or weed control at 125 g/ha [7, 17] was 90%. The pest or weed control at 500 g/ha [7, 17] was 100%, the pest or weed control at 62 g/ha [8, 22] was 0% and the pest or weed control at 125 g/ha [8, 23] was 0%. For the same compound, the pest or weed control at 250 g/ha [8, 24] was 75%, the pest or weed control at 31 g/ha [8, 25] was 0% and the pest or weed control at 62 g/ha [9, 22] was 0%. For the same compound, the pest or weed control at 125 g/ha [9, 23] was 0%, the pest or weed control at 250 g/ha [9, 24] was 20% and the pest or weed control at 31 g/ha [9, 25] was 0%. The plant injury at 62 g/ha [10, 22] was 0%, the plant injury at 125 g/ha [10, 23] was 0% and the plant injury at 250 g/ha [10, 24] was 0%. It also gave a plant injury at 31 g/ha [10, 25] of 0%, a pest or weed control at 62 g/ha [11, 22] of 50% and a pest or weed control at 250 g/ha [11, 24] of 70%. For the same compound, the pest or weed control at 31 g/ha [11, 25] was 40%, the “Chickweed plant response rating” value [12, 26] was 0 and the “Plant response rating, Chickweed” value ([12]; 16 g ai/ha, scale 0 to 100) was 0. For the same compound, the “Plant response rating, Chickweed” value [12, 27] was 0, the “Plant response rating, Chickweed” value [12, 28] was 0 and the “Canarygrass plant response rating” value [13, 26] was 10. The “Plant response rating, Canarygrass” value ([13]; 16 g ai/ha, scale 0 to 100) was 10, the “Plant response rating, Canarygrass” value [13, 27] was 60 and the “Windgrass plant response rating” value [14, 26] was 50. The “Plant response rating, Windgrass” value ([14]; 16 g ai/ha, scale 0 to 100) was 80, the “Plant response rating, Windgrass” value [14, 28] was 95 and the “Barley plant response rating” value [15, 26] was 0. The “Plant response rating, Barley” value ([15]; 16 g ai/ha) was 0, the “Plant response rating, Barley” value ([15]; 31 g ai/ha) was 0 and the “Plant response rating, Barley” value ([15]; 62 g ai/ha) was 0.
